Data: ChEMBL document CHEMBL1155461, “Emerging targets in osteoporosis disease modification” (J Med Chem, 2010)

Columns and labels:
[1] = biological target: Cannabinoid receptor 1 (Homo sapiens, UniProt P21554)
[2] = Selectivity for cathepsin K over cathepsin L
[3] = Selectivity for cathepsin K over cathepsin S
[4] = biological target: Cathepsin K (Homo sapiens, UniProt P43235)
Target sequence in this assay (P43235 whole entry): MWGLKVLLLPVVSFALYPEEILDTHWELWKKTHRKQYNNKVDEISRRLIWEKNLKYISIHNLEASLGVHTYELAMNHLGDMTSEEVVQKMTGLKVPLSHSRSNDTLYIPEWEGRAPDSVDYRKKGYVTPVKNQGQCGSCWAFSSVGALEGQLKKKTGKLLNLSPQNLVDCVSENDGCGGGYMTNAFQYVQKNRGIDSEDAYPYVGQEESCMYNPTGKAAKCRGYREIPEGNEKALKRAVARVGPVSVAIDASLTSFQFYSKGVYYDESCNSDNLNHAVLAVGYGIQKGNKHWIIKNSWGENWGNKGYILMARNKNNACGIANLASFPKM

[5] = biological target: Cathepsin K (Homo sapiens, UniProt P43235); assay: Inhibition of humanized rabbit cathepsin K
[6] = Selectivity for cathepsin K over cathepsin B
[7] = Selectivity for cathepsin K over cathepsin V
[8] = Selectivity for cathepsin K over cathepsin H
[9] = Selectivity for cathepsin K over cathepsin F
[10] = tested on: MC3T3-E1; assay: Induction of osteogenesis in mouse MC3T3-E1 cells assessed as increase in osteoblast differentiation-associated ALP level at 0.01 uM; type: functional
[11] = tested on: MC3T3-E1; assay: Induction of osteogenesis in mouse MC3T3-E1 cells assessed as increase in bone mineralization at 1 uM; type: functional
[12] = tested on: MC3T3-E1; assay: Induction of osteogenesis in mouse MC3T3-E1 cells assessed as increase in osteoblast differentiation-associated collagen synthesis at 0.01 uM; type: functional
[13] = tested on: Rattus norvegicus; assay: Induction of bone formation in ovariectomized rat assessed as increase in total bone mineral content at 1 mg/kg, sc administered daily for 6 weeks relative to control; type: functional; details: route subcutaneous
[14] = biological target: Prostaglandin E2 receptor EP1 subtype (Homo sapiens, UniProt P34995); assay: Binding affinity to EP1 receptor
Sequence of Prostaglandin E2 receptor EP1 subtype (P34995 whole entry): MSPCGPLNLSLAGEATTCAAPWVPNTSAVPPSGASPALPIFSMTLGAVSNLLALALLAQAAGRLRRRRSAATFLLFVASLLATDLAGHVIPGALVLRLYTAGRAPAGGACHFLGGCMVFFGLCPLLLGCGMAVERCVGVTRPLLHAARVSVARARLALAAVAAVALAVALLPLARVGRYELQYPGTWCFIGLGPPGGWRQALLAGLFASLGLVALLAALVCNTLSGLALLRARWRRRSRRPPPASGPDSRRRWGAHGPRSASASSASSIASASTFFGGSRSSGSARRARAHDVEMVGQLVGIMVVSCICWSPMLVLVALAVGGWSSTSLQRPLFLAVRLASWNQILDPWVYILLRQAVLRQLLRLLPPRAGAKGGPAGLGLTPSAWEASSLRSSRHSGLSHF

[15] = Selectivity for integrin alphaVbeta3 over integrin alpha2Bbeta3
[16] = biological target: T1, Integrin alpha-V/beta-3 (Homo sapiens, UniProt P05106+P06756); assay: Inhibition of integrin alpha-V-beta-3-mediated adhesion of HEK293 cells; type: cell-based
[17] = biological target: Integrin alpha-V/beta-5 (Homo sapiens) (UniProt P06756+P18084); assay: Inhibition of integrin alpha-V-beta-5-mediated adhesion of HEK293 cells; type: cell-based
[18] = biological target: Integrin alpha-V/beta-1 (Homo sapiens) (UniProt P05556+P06756); assay: Inhibition of integrin alpha-V-beta-1-mediated adhesion of HEK293 cells; type: cell-based
[19] = biological target: Integrin alpha-V/beta-6 (Homo sapiens) (UniProt P06756+P18564); assay: Inhibition of integrin alpha-V-beta-6-mediated adhesion of human HT-29 cells; type: cell-based
[20] = tested on: MC3T3-E1; assay: Induction of osteogenesis in mouse MC3T3-E1 cells assessed as increase in osteoblast differentiation-associated ALP level at 0.3 uM; type: functional
[21] = tested on: MC3T3-E1; assay: Induction of osteogenesis in mouse MC3T3-E1 cells assessed as increase in osteoblast differentiation-associated collagen synthesis at 0.3 uM; type: functional
[22] = tested on: MC3T3-E1; assay: Induction of osteogenesis in mouse MC3T3-E1 cells assessed as increase in bone mineralization at 0.3 uM; type: functional
[23] = tested on: Osteoclast; assay: Inhibition of osteoclast differentiation; type: functional, cell-based
[24] = biological target: Cannabinoid receptor 2 (Homo sapiens, UniProt P34972); assay: Antagonist activity at cannabinoid CB2 receptor; type: functional
Sequence of Cannabinoid receptor 2 (P34972 whole entry): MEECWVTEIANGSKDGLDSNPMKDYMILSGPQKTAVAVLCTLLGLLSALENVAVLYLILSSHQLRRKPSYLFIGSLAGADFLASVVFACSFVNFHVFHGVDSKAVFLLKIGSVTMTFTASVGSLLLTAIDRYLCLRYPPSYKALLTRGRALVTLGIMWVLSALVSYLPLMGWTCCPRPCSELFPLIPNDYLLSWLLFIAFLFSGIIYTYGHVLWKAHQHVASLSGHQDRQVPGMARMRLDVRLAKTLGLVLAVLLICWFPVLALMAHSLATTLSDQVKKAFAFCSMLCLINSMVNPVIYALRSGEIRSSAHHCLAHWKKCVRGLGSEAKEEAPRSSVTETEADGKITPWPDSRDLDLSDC

[25] = tested on: Rattus norvegicus; assay: Short duration (5-10 min) elevation in PTH as Cmax in rats after 10 umol/kg intravenous dose; type: functional, organism-based
[26] = biological target: T1, Integrin alpha-V/beta-3; assay: Inhibition of integrin alpha-V-beta-3-mediated adhesion of human cells M21 cells; type: cell-based
Target sequence in this assay (P05106 27-788 limits assumed): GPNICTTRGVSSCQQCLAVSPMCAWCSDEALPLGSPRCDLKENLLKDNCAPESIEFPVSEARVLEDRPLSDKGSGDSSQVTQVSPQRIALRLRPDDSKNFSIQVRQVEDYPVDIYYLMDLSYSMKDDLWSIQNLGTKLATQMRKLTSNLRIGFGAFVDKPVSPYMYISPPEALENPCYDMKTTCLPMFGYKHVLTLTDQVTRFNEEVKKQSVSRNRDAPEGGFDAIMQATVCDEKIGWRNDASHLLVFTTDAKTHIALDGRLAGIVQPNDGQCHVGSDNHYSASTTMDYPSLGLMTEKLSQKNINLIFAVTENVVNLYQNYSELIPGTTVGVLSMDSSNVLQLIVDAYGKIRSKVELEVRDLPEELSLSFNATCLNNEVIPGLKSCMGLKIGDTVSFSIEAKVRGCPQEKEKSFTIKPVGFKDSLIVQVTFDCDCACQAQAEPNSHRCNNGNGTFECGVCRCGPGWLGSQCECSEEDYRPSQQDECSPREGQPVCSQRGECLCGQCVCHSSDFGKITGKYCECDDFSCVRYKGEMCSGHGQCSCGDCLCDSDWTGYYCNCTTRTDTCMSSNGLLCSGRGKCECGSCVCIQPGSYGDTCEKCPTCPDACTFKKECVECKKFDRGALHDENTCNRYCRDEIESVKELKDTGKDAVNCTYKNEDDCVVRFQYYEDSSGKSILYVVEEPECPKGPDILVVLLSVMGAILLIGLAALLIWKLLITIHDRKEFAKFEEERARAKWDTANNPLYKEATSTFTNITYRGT
Target sequence in this assay (P06756 31-889 limits assumed): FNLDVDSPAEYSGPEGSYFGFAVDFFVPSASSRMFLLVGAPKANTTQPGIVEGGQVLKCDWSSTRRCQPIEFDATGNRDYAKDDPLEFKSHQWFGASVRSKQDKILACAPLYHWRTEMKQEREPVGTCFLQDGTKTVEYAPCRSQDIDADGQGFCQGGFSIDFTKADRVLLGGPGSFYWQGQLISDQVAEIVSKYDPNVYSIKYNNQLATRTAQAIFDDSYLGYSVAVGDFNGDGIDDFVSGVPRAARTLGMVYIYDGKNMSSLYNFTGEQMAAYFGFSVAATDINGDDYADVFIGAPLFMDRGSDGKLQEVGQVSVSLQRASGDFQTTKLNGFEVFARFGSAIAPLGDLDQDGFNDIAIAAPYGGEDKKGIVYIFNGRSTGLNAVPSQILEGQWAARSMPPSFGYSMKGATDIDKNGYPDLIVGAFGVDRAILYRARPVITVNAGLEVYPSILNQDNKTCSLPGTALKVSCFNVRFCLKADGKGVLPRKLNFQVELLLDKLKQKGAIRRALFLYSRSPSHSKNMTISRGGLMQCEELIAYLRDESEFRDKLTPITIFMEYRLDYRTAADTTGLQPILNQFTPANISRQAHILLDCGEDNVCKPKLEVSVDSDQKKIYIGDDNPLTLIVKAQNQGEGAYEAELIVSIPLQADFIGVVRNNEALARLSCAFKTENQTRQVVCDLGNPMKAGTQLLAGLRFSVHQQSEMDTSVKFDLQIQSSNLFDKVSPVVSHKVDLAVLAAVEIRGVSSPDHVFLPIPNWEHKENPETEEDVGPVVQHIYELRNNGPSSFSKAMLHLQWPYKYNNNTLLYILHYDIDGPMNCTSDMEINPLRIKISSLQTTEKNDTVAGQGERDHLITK
Target sequence in this assay (P06756 891-1048 limits assumed): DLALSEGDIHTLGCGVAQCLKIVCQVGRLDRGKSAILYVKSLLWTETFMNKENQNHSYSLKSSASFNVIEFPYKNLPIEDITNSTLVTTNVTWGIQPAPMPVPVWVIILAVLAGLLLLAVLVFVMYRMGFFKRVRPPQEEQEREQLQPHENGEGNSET

[27] = species on record: Mus musculus; assay: Induction of bone formation in GPR55 knockout male mouse assessed as increase in tibia mass volume; type: functional
[28] = species on record: Mus musculus; assay: Induction of bone formation in GPR55 knockout male mouse assessed as increase in femur mass volume; type: functional
[29] = biological target: G-protein coupled receptor 55 (Homo sapiens, UniProt Q9Y2T6); assay: Binding affinity to GPR55
Sequence of G-protein coupled receptor 55 (Q9Y2T6 whole entry): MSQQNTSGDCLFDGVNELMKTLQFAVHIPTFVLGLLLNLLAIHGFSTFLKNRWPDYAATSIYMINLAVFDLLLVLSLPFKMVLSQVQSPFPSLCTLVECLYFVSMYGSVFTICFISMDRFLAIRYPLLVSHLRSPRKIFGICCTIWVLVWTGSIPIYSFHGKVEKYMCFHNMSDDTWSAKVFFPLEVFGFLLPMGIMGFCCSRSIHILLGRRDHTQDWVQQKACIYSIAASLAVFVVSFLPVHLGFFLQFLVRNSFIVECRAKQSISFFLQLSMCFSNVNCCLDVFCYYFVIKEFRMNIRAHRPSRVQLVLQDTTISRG

[30] = tested on: Mus musculus; assay: Antiosteoporotic activity in mouse assessed as decrease in bone resorption-associated serum CTX-1 level at 10 mg/kg administered 3 times a week for 8 weeks; type: functional; details: 1344 h
[31] = tested on: Mus musculus; assay: Antiosteoporotic activity in mouse assessed as increase in bone volume at 10 mg/kg administered 3 times a week for 8 weeks; type: functional, Bone element
[32] = Clearance in po dosed rat; type: ADME, organism-based; details: in vivo
[33] = Half life in po dosed rat; type: ADME, organism-based; details: in vivo
[34] = tested on: Rattus norvegicus; assay: Short duration (5-10 min) elevation in PTH as Cmax in rats after 3 umol/kg intravenous dose; type: functional
[35] = biological target: T2, Extracellular calcium-sensing receptor (Homo sapiens, UniProt P41180)
T2 sequence (P41180 whole entry): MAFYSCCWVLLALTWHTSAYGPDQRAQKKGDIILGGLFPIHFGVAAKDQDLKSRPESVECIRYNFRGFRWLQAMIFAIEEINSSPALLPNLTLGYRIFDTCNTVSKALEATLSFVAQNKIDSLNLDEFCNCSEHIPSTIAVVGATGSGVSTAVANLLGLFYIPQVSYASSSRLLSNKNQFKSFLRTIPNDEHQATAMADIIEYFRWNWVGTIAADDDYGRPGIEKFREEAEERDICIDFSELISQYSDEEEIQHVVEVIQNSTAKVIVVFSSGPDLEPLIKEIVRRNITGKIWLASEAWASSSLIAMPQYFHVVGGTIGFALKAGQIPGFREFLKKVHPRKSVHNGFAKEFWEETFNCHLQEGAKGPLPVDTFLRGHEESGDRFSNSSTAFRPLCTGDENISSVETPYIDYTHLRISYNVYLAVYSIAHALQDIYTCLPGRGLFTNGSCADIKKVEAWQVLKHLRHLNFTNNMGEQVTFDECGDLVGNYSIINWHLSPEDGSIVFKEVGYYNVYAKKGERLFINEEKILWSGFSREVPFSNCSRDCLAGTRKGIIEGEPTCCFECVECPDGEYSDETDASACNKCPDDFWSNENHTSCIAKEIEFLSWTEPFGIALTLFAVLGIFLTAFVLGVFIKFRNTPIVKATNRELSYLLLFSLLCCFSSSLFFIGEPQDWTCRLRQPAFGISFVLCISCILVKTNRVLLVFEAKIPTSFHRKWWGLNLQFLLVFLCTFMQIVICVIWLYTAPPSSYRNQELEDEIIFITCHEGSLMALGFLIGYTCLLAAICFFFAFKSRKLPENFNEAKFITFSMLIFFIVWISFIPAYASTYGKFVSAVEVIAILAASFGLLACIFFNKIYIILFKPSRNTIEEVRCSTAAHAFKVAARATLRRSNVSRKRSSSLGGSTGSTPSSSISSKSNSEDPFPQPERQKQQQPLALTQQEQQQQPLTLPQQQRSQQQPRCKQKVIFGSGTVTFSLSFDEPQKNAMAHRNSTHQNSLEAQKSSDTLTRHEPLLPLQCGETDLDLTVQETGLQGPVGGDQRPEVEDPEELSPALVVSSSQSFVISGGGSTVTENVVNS

Sequence of Cannabinoid receptor 1 (P21554 whole entry): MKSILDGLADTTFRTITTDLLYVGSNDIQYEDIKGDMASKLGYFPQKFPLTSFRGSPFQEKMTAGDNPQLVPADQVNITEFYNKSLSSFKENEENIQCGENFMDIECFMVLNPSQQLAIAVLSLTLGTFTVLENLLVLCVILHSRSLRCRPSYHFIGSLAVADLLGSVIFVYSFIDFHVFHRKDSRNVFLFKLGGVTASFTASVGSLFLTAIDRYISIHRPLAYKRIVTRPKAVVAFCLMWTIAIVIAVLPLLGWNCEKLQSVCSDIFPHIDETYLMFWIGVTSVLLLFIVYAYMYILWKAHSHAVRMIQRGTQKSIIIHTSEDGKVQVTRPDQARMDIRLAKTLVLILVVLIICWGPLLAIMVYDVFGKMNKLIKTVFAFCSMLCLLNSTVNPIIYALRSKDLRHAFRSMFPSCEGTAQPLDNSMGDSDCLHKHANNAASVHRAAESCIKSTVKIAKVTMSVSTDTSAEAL

`CCCCCCC(C)(C)c1cc(OC)c([C@H]2C=C(CO)[C@@H]3C[C@H]2C3(C)C)c(OC)c1` gave a Ki [1] of no less than 10000 nM.
Compound `CC(C)(C)Cn1c(CN2C(=O)CC3(CCNCC3)C2=O)cc2cnc(C#N)nc21` has a Selectivity ratio [2] greater than 1000, a Selectivity ratio [3] greater than 10000 and an IC50 [4] of less than 1 nM.
For `CS(=O)(=O)c1ccc(-c2cn(CC(F)(F)F)nc2[C@@H]2CCC(Cl)(Cl)C[C@H]2C(=O)NC2(C#N)CC2)cc1`, the IC50 [5] was 0.62 nM, the Selectivity ratio [6] was greater than 16000 and the Selectivity ratio [2] was 4700. The Selectivity ratio [3] was 4300, the Selectivity ratio [7] was 1100 and the Selectivity ratio [8] was greater than 140000. For the same compound, the Selectivity ratio [9] was 110.
In the case of `COc1cc2c(O)c3c(O)c(OC)c(O[C@@H]4O[C@H](CO)[C@@H](O)[C@H](O)[C@H]4O)cc3c(O)c2c(O)c1OC`, the Activity [10] is reported as 135% and the Activity [11] is reported as 115%.
Compound `CC(C)CNc1nc(C#N)nc(N2CCOCC2)c1N` has a Selectivity ratio [6] greater than 556, a Selectivity ratio [2] of 111 and a Selectivity ratio [3] of 31.
In the case of `COc1c(O)cc2c(O)c3c(O)c(O)c(O[C@@H]4O[C@@H](C)[C@H](O)[C@@H](O)[C@H]4O)cc3c(O)c2c1O`, the Activity [12] is reported as 111% and the Activity [11] is reported as 125%.
Compound `CCCCC[C@H](O)/C=C/[C@H]1[C@H](O)CC(=O)[C@@H]1C/C=C\CCCC(=O)O` [DINOPROSTONE] has an Activity [13] of 20.6% and an IC50 [14] of 1.1 nM.
With `O=C(O)C[C@H](Cc1nc(CCCc2ccc3c(n2)NCCC3)no1)c1ccc2c(c1)OCO2` the Selectivity ratio [15] was 67, the Activity [16] was 0.65 nM and the Activity [17] was 1.7 nM. The Activity [18] was 2.6 nM and the Activity [19] was 2.7 µM.
Work on `CO[C@@]1(C)CC/C=C(\C)CCC2=C(C)CO[C@H]2/C=C(\C)CC[C@@H]1O` yielded an Activity [20] of 127.8%, an Activity [21] of 108.2% and an Activity [22] of 110.6%.
For `COc1ccc(C(=O)c2c(C)n(CCN3CCOCC3)c3cc(I)ccc23)cc1`, the IC50 [23] was 330 nM and the IC50 [24] was 7200 nM.
In the case of `O=c1c2ccccc2nc(-c2ccccc2O)n1CCc1ccccc1`, the Cmax PTH [25] is reported as 400 pg/mL.
Compound `N=C(N)N=C(N)Nc1cc(Cl)cc(Cl)c1` has an IC50 [26] of 33.5 nM.
Compound `C=C(C)[C@@H]1CCC(C)=C[C@H]1c1c(O)cc(CCCCC)cc1O` [CANNABIDIOL] has an Activity [27] of 136%, an Activity [28] of 149% and an EC50 [29] of 445 nM. For the same compound, the inhibition in vivo at 10 mg/kg [30] was 18% and the Activity [31] was 10%.
For `O=C(O)c1ccc(CCCN2C(=O)CC[C@@H]2CC[C@@H](O)Cc2cccc(C(F)(F)F)c2)s1`, the CL/F [32] was 70 mL/min/kg and the half-life [33] was 12 min.
For `CCc1cc2c(=O)n(CCc3ccccc3F)c(-c3ccccc3O)nc2cc1C`, the Cmax PTH [34] was 600 pg/mL and the IC50 [35] was 97 nM.
